The record followed here is patent US20240254115A1 (ACONDICIONAMIENTO TARRASENSE, priority 2021, published 2024).

One experiment has as its target T1, human σ1 receptor (Homo sapiens, UniProt Q99720).
T1 construct: expressed in transfected cells; host or cells: HEK-293
In words: Human σ1 receptor radioligand assay. To be noted: transfected HEK-293 membranes, 5 nM [3H](+)-pentazocine, 37° C. 120 minutes; + may also stand for 1-50% inhibition at 1 or 10 μM; read-out: Binding σ-1 Ki. As for the experimental part: Human σ1 Receptor Radioligand Assay
Transfected HEK-293 membranes (7 μg) were incubated with 5 nM of [^3H](+)-pentazocine in assay buffer containing Tris-HCl 50 mM at pH 8. NBS (non-specific binding) was measured by adding 10 μM haloperidol. The binding of the test compound was measured at either one concentration (% inhibition at 1 or 10 μM) or five different concentrations to determine affinity values (Ki). Plates were incubated at 37° C. for 120 minutes. After the incubation period, the reaction mix was then transferred to MultiScreen HTS, FC plates (Millipore), filtered and plates were washed 3 times with ice-cold 10 mM Tris-HCL (pH7.4). Filters were dried and counted at approximately 40% efficiency in a MicroBeta scintillation counter (Perkin-Elmer) using EcoScint liquid scintillation cocktail.

A further experiment concerns the target T2, human σ2/TMEM97 receptor (Homo sapiens, UniProt Q5BJF2).
T2 construct: expressed in transfected cells; host or cells: HEK-293
Description: Binding assay to human σ2/TMEM97 receptor. To be noted: transfected HEK-293 membranes, 10 nM [3H]-DTG, 25° C. 120 minutes; + may also stand for 1-50% inhibition at 1 or 10 μM; read-out: Binding σ-2 Ki. The method, then: Binding Assay to Human σ2/TMEM97 Receptor
Transfected HEK-293 membranes (15 μg) were incubated with 10 nM [^3H]-1,3-Di-o-tolylguanidine (DTG) in assay buffer containing Tris-HCl 50 mM at pH 8.0. NSB (non-specific binding) was measured by adding 10 μM haloperidol. The binding of the test compound was measured at either one concentration (% inhibition at 1 or 10 μM) or five different concentrations to determine affinity values (Ki). Plates were incubated at 25° C. for 120 minutes. After the incubation period, the reaction mix was transferred to MultiScreen HTS, FC plates (Millipore), filtered and washed 3 times with ice-cold 10 mM Tris-HCL (pH 8.0). Filters were dried and counted at approximately 40% efficiency in a MicroBeta scintillation counter (Perkin-Elmer) using EcoScint liquid scintillation cocktail.

T2 sequence (Q5BJF2 whole entry): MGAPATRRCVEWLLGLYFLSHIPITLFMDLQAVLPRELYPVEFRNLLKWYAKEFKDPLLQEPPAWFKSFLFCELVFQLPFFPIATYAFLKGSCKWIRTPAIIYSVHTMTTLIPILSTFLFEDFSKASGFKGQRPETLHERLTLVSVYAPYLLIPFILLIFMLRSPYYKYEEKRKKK
T1 sequence (Q99720 whole entry): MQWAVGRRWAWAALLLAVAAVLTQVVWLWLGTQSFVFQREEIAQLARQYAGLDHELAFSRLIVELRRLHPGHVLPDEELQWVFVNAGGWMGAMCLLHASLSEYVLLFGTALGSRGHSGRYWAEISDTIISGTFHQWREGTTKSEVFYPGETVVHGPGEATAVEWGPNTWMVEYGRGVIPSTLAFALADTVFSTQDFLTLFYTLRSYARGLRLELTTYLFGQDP

The term Ki denotes the dissociation constant of the complex between target and ligand, obtained from inhibition or displacement. With `CC(C)N([C@@H]1CCN(Cc2ccc(C#N)cc2)C1)S(=O)(=O)c1ccc(N2CCOCC2)nc1` [Example 49, (R)—N-(1-(4-Cyanobenzyl)pyrrolidin-3-yl)-N-isopropyl-6-morpholinopyridine-3-sulfonamide], the Ki on human σ1 receptor and on human σ2/TMEM97 receptor was > 1 µM throughout.
In the case of `CC(C)(C)CCN1CCC2(CC1)CCN(S(=O)(=O)c1ccc(C(F)(F)F)nc1)CC2` [Example 66, 3-(3,3-Dimethylbutyl)-9-((6-(trifluoromethyl)pyridin-3-yl)sulfonyl)-3,9-diazaspiro[5.5]undecane], the Ki at human σ1 receptor and on human σ2/TMEM97 receptor was < 0.1 µM each time.
For `O=C1OCCN1c1ccc(S(=O)(=O)N2CCCC3(CCN(Cc4ccccc4)CC3)C2)cn1` [Example 155, 3-(5-((9-Benzyl-2,9-diazaspiro[5.5]undecan-2-yl)sulfonyl)pyridin-2-yl)oxazolidin-2-one], the Ki at human σ1 receptor and on human σ2/TMEM97 receptor was < 0.1 µM each time.
With `CC(C)(C)CCN1CCC2(CC1)CCN(S(=O)(=O)c1ccc(-c3ccncc3)nc1)C2` [Example 114, 2-([2,4′-Bipyridin]-5-ylsulfonyl)-8-(3,3-dimethylbutyl)-2,8-diazaspiro[4.5]decane], the Ki on human σ1 receptor and at human σ2/TMEM97 receptor was < 0.1 µM throughout.
As for `CC(C)(C)CCN1CCC2(CC1)CCN(S(=O)(=O)c1ccc(N3CCS(=O)(=O)CC3)nc1)CC2` [Example 69, 4-(5-((9-(3,3-Dimethylbutyl)-3,9-diazaspiro[5.5]undecan-3-yl)sulfonyl)pyridin-2-yl)thiomorpholine 1,1-dioxide], the Ki on human σ1 receptor is 0.1 to 0.5 µM; at human σ2/TMEM97 receptor, < 0.1 µM.
With `CC(C)(C)CCN1CCC2(CCCN(S(=O)(=O)c3ccc(N4CCCCC4=O)nc3)C2)CC1` [Example 122, 1-(5-((9-(3,3-Dimethylbutyl)-2,9-diazaspiro[5.5]undecan-2-yl)sulfonyl)pyridin-2-yl)piperidin-2-one], the Ki is 0.1 to 0.5 µM at human σ1 receptor and < 0.1 µM on human σ2/TMEM97 receptor.
In the same order, the values of `CC(C)(C)CCN1CCC2(CC1)CCN(S(=O)(=O)c1ccc(-c3ccncc3)nc1)CC2` [Example 113, 3-([2,4′-Bipyridin]-5-ylsulfonyl)-9-(3,3-dimethylbutyl)-3,9-diazaspiro[5.5]undecane] are 0.1 to 0.5 µM and < 0.1 µM.
In the same order, the values of `COc1ccc(CNC[C@H]2CCCN(S(=O)(=O)c3ccc(N4CCOCC4)nc3)C2)cn1` [Example 33, (R)-1-(6-Methoxypyridin-3-yl)-N-((1-((6-morpholinopyridin-3-yl)sulfonyl)piperidin-3-yl)methyl) methanamine] are > 1 µM and < 0.1 µM.
In the same order, the values of `CN(Cc1cc(F)ccc1F)[C@H]1CC[C@H](NS(=O)(=O)c2ccc(N3CCC4(CCOC4)CC3)nc2)CC1` [Example 179, N-((1r,4r)-4-((2,5-Difluoro-benzyl)(methyl)amino)cyclohexyl)-6-(2-oxa-8-azaspiro[4.5]decan-8-yl)pyridine-3-sulfonamide] are > 1 µM and < 0.1 µM.
Consider `CC(C)(C)CCN1CCC2(CC1)CCN(S(=O)(=O)c1ccc(C3CCOCC3)nc1)CC2` [Example 117, 3-(3,3-Dimethylbutyl)-9-((6-(tetrahydro-2H-pyran-4-yl)pyridin-3-yl)sulfonyl)-3,9-diazaspiro[5.5]undecane], for which the Ki on human σ1 receptor was 0.1 to 0.5 µM; on human σ2/TMEM97 receptor, < 0.1 µM.
In the same order, the values of `O=C1OCCN1c1ccc(S(=O)(=O)N2CCC3(CCN(CC4CCOCC4)CC3)CC2)cn1` [Example 128, 3-(5-((9-((Tetrahydro-2H-pyran-4-yl)methyl)-3,9-diazaspiro[5.5]undecan-3-yl)sulfonyl)pyridin-2-yl)oxazolidin-2-one] are 0.5 to 1 µM and < 0.1 µM.
In the same order, the values of `CC(C)(C)CN1CCCC2(CCN(S(=O)(=O)c3ccc(N4CCC(F)(F)CC4)nc3)CC2)C1` [Example 85, 9-((6-(4,4-Difluoropiperidin-1-yl)pyridin-3-yl)sulfonyl)-2-neopentyl-2,9-diazaspiro[5.5]undecane] are < 0.1 µM and 0.5 to 1 µM.
`CC(C)(C)CCN1CCC2(CC1)CCN(S(=O)(=O)c1ccc(N3CCC4(CC3)COC4)nc1)CC2` [Example 72, 7-(5-((9-(3,3-Dimethylbutyl)-3,9-diazaspiro[5.5]undecan-3-yl)sulfonyl)pyridin-2-yl)-2-oxa-7-azaspiro[3.5]nonane]: the Ki at human σ1 receptor was 0.5 to 1 µM; at human σ2/TMEM97 receptor, < 0.1 µM.
In the same order, the values of `O=S(=O)(c1ccc(N2CCC(F)(F)CC2)nc1)N1CCCC2(CCN(Cc3ccccc3)CC2)C1` [Example 130, 9-Benzyl-2-((6-(4,4-difluoropiperidin-1-yl)pyridin-3-yl)sulfonyl)-2,9-diazaspiro[5.5]undecane] are < 0.1 µM and < 0.1 µM.
In the same order, the values of `CCC(=O)N(C)c1ccc(S(=O)(=O)N2CCCC3(CCN(CCC(C)(C)C)CC3)C2)cn1` [Example 104, N-(5-((9-(3,3-Dimethylbutyl)-2,9-diazaspiro[5.5]undecan-2-yl)sulfonyl)pyridin-2-yl)-N-methylpropionamide] are 0.1 to 0.5 µM and < 0.1 µM.
In the same order, the values of `O=C1OCCN1c1ccc(S(=O)(=O)N2CCC3(CCCN(Cc4ccccc4)C3)CC2)cn1` [Example 147, 3-(5-((2-Benzyl-2,9-diazaspiro[5.5]undecan-9-yl)sulfonyl)pyridin-2-yl)oxazolidin-2-one] are 0.5 to 1 µM and 0.1 to 0.5 µM.
Turning to `N#Cc1ccc(CN2CC[C@H](NS(=O)(=O)c3ccc(N4CCOCC4)nc3)C2)cc1` [Example 39, (S)-N-(1-(4-Cyanobenzyl)pyrrolidin-3-yl)-6-morpholinopyridine-3-sulfonamide], the Ki was < 0.1 µM at human σ1 receptor and > 1 µM at human σ2/TMEM97 receptor.
In the same order, the values of `CN(C)c1ccc(S(=O)(=O)N[C@@H]2CCN(Cc3ccccc3)C2)cn1` [Example 22, (R)-N-(1-Benzylpyrrolidin-3-yl)-6-(dimethylamino) pyridine-3-sulfonamide] are < 0.1 µM and > 1 µM.
In the same order, the values of `O=S(=O)(N[C@@H]1CCN(Cc2ccc(F)cc2)C1)c1ccc(N2CCOCC2)nc1` [Example 36, (R)-N-(1-(4-Fluorobenzyl)pyrrolidin-3-yl)-6-morpholinopyridine-3-sulfonamide] are < 0.1 µM and > 1 µM.
In the same order, the values of `Cc1ccc(S(=O)(=O)N2CCCC3(CCN(CCC(C)(C)C)CC3)C2)cn1` [Example 108, 9-(3,3-Dimethylbutyl)-2-((6-methylpyridin-3-yl)sulfonyl)-2,9-diazaspiro[5.5]undecane] are < 0.1 µM and < 0.1 µM.
With `CC(C)(C)CCN1CCC2(CCCN(S(=O)(=O)c3ccc(N4CCS(=O)(=O)CC4)nc3)C2)CC1` [Example 118, 4-(5-((9-(3,3-Dimethylbutyl)-2,9-diazaspiro[5.5]undecan-2-yl)sulfonyl)pyridin-2-yl)thiomorpholine 1,1-dioxide], the Ki is 0.1 to 0.5 µM at human σ1 receptor and < 0.1 µM on human σ2/TMEM97 receptor.
In the same order, the values of `Cc1ccc(S(=O)(=O)N2CCC3(CCN(CCC(C)(C)C)CC3)CC2)cn1` [Example 110, 3-(3,3-Dimethylbutyl)-9-((6-methylpyridin-3-yl)sulfonyl)-3,9-diazaspiro[5.5]undecane] are < 0.1 µM and < 0.1 µM.
In the same order, the values of `N#Cc1cccc(CN2CCC3(CC2)CCN(S(=O)(=O)c2ccc(N4CCOCC4)nc2)CC3)c1` [Example 48, 3-((9-((6-Morpholinopyridin-3-yl)sulfonyl)-3,9-diazaspiro[5.5]undecan-3-yl)methyl)benzonitrile] are > 1 µM and < 0.1 µM.
In the same order, the values of `CC(C)(C)CCN1CCC2(CCCN(S(=O)(=O)c3ccc(N4CCOC4=O)nc3)C2)CC1` [Example 123, 3-(5-((9-(3,3-Dimethylbutyl)-2,9-diazaspiro[5.5]undecan-2-yl)sulfonyl)pyridin-2-yl)oxazolidin-2-one] are 0.1 to 0.5 µM and < 0.1 µM.
For the compound `O=C1OCCN1c1ccc(S(=O)(=O)N2CCC3(CCN(Cc4ccccc4F)CC3)CC2)cn1` [Example 166, 3-(5-((9-(2-Fluorobenzyl)-3,9-diazaspiro[5.5]undecan-3-yl)sulfonyl)pyridin-2-yl)oxazolidin-2-one], the Ki at human σ1 receptor is 0.5 to 1 µM; at human σ2/TMEM97 receptor it was < 0.1 µM.
In the same order, the values of `O=S(=O)(N[C@H]1CC[C@H](NCc2ccccc2F)CC1)c1ccc(N2CCOCC2)nc1` [Example 53, N-((1r,4r)-4-((2-Fluorobenzyl)amino)cyclohexyl)-6-morpholinopyridine-3-sulfonamide] are > 1 µM and 0.1 to 0.5 µM.
